Blank lines part the entries; values can stand above or below the compound they belong to. Active and inactive are the calls of the source. The rule behind the calls is not given here.
How the values were obtained:
[1] = biological target: T1, Bifunctional dihydrofolate reductase-thymidylate synthase (Cryptosporidium parvum) (UniProt Q27552); assay: Ratio of trimethorpin IC50 to compound IC50 for Cryptosporidium parvum recombinant DHFR
T1 sequence (whole entry): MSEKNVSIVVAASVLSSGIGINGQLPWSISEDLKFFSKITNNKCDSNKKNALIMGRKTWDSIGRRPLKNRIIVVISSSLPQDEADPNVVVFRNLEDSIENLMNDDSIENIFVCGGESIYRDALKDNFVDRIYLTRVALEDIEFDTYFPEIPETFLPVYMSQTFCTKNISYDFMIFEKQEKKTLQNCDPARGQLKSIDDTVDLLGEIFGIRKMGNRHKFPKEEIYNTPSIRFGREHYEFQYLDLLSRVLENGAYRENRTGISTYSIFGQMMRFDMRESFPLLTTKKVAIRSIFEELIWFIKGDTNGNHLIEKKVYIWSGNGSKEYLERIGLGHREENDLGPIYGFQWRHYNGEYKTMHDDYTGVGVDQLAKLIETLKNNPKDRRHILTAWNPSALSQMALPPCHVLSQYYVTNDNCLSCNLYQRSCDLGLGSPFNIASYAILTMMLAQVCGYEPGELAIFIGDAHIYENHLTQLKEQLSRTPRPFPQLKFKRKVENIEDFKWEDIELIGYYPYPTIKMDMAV

Dihydrofolate reductase = biological target: T2, Dihydrofolate reductase (Homo sapiens, UniProt P00374); assay: Inhibition of Homo sapiens (human) dihydrofolate reductase using dihydrofolate as substrate incubated for 5 min prior to substrate addition by spectrophotometric assay
T2 sequence (P00374 whole entry): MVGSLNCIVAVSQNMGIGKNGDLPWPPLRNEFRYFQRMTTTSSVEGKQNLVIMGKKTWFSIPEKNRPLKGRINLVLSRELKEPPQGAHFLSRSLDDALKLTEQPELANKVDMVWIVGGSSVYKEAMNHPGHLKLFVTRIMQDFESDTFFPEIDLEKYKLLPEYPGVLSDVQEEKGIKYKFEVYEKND

[2] = biological target: T3, Bifunctional dihydrofolate reductase-thymidylate synthase (Cryptosporidium parvum, UniProt Q27552); assay: Inhibition of Cryptosporidium parvum recombinant DHFR using dihydrofolate as substrate incubated for 5 min prior to substrate addition by spectrophotometric assay
T3 sequence (Q27552 whole entry): T1 sequence (whole entry)

Toxoplasma gondii [3] = assay: Antiparasitic activity Toxoplasma gondii RH infected Swiss albino mouse assessed as decrease in interstitial pneumonia at 0.25 mg, po administered 48 hr post-infection measured after 3 days by haematoxylin and eosin staining relative to control; format: functional, organism-based
Toxoplasma gondii [4] = assay: Antiparasitic activity Toxoplasma gondii RH infected Swiss albino mouse assessed as decrease in host lung congestion at 0.25 mg, po administered 48 hr post-infection measured after 3 days by haematoxylin and eosin staining relative to control; format: functional, organism-based
Toxoplasma gondii [5] = assay: Antiparasitic activity Toxoplasma gondii RH infected Swiss albino mouse assessed as megakaryocytes in host spleen at 0.25 mg, po administered 48 hr post-infection measured after 3 days by haematoxylin and eosin staining relative to control; format: functional, organism-based
Toxoplasma gondii [6] = assay: Antiparasitic activity Toxoplasma gondii RH infected Swiss albino mouse assessed as extramedullary hematopoiesis in host spleen at 0.25 mg, po administered 48 hr post-infection measured after 3 days by haematoxylin and eosin staining relative to control; format: functional, organism-based
Toxoplasma gondii [7] = assay: Antiparasitic activity Toxoplasma gondii RH infected Swiss albino mouse assessed as epethelioid granuloma in host spleen at 0.25 mg, po administered 48 hr post-infection measured after 3 days by haematoxylin and eosin staining relative to control; format: functional, organism-based
Toxoplasma gondii [8] = assay: Antiparasitic activity Toxoplasma gondii RH infected Swiss albino mouse assessed as increase in host spleen red pulp at 0.25 mg, po administered 48 hr post-infection measured after 3 days by haematoxylin and eosin staining relative to control; format: functional, organism-based
Toxoplasma gondii [9] = assay: Antiparasitic activity Toxoplasma gondii RH infected Swiss albino mouse assessed as decrease in host spleen white pulp at 0.25 mg, po administered 48 hr post-infection measured after 3 days by haematoxylin and eosin staining relative to control; format: functional, organism-based
Toxoplasma gondii [10] = assay: Antiparasitic activity Toxoplasma gondii RH infected Swiss albino mouse assessed as decrease in host spleen necrosis at 0.25 mg, po administered 48 hr post-infection measured after 3 days by haematoxylin and eosin staining relative to control; format: functional, organism-based
Toxoplasma gondii [11] = assay: Antiparasitic activity Toxoplasma gondii RH infected Swiss albino mouse assessed as clear lymphocytes in host liver focal granuloma at 0.25 mg, po administered 48 hr post-infection measured after 3 days by haematoxylin and eosin staining relative to control; format: functional, organism-based
Toxoplasma gondii [12] = assay: Antiparasitic activity Toxoplasma gondii RH infected Swiss albino mouse assessed as clear mononuclear cells in host liver focal granuloma at 0.25 mg, po administered 48 hr post-infection measured after 3 days by haematoxylin and eosin staining relative to control; format: functional, organism-based
Toxoplasma gondii [13] = assay: Antiparasitic activity Toxoplasma gondii RH infected Swiss albino mouse assessed as decrease in host liver necrosis at 0.25 mg, po administered 48 hr post-infection measured after 3 days by haematoxylin and eosin staining relative to control; format: functional, organism-based
Toxoplasma gondii [14] = assay: Antiparasitic activity Toxoplasma gondii RH infected Swiss albino mouse assessed as homogenous tachyzoites in host peritoneal exudate at 0.25 mg, po administered 48 hr post-infection measured after 3 days by scanning electron microscopic analysis; format: functional, organism-based
Toxoplasma gondii [15] = assay: Antiparasitic activity Toxoplasma gondii RH infected Swiss albino mouse assessed as smooth tachyzoites in host peritoneal exudate at 0.25 mg, po administered 48 hr post-infection measured after 3 days by scanning electron microscopic analysis; format: functional, organism-based
Toxoplasma gondii [16] = assay: Antiparasitic activity Toxoplasma gondii RH infected Swiss albino mouse assessed as dimpled parasite surface in host peritoneal exudate at 0.25 mg, po administered 48 hr post-infection measured after 3 days by scanning electron microscopic analysis; format: functional, organism-based
Toxoplasma gondii [17] = assay: Antiparasitic activity Toxoplasma gondii RH infected Swiss albino mouse assessed as deep ridged parasite surface in host peritoneal exudate at 0.25 mg, po administered 48 hr post-infection measured after 3 days by scanning electron microscopic analysis; format: functional, organism-based
Toxoplasma gondii [18] = assay: Antiparasitic activity Toxoplasma gondii RH infected Swiss albino mouse assessed as parasite deformity in host peritoneal exudate at 0.25 mg, po administered 48 hr post-infection measured after 3 days by light microscopic analysis; format: functional, organism-based
Toxoplasma gondii [19] = assay: Antiparasitic activity Toxoplasma gondii RH infected Swiss albino mouse assessed as decreased parasite movement in host peritoneal exudate at 0.25 mg, po administered 48 hr post-infection measured after 3 days by light microscopic analysis; format: functional, organism-based
Toxoplasma gondii [20] = assay: Antiparasitic activity Toxoplasma gondii RH infected Swiss albino mouse assessed as decrease in Toxoplasma antigen in host serum at 0.25 mg, po administered 48 hr post-infection measured after 3 days by Co-A test relative to control; format: functional, organism-based
Toxoplasma gondii [21] = assay: Antiparasitic activity against Toxoplasma gondii RH infected Swiss albino mouse assessed as decrease in tachozyte count in spleen at 0.25 mg, po administered 48 hr post-infection measured after 3 days by Geimsa staining relative to control; format: functional, organism-based
Toxoplasma gondii [22] = assay: Antiparasitic activity against Toxoplasma gondii RH infected Swiss albino mouse assessed as decrease in tachozyte count in liver at 0.25 mg, po administered 48 hr post-infection measured after 3 days by Geimsa staining relative to control; format: functional, organism-based
Toxoplasma gondii [23] = assay: Antiparasitic activity Toxoplasma gondii RH infected Swiss albino mouse assessed as parasite dimpled conoid in host peritoneal exudate at 0.25 mg, po administered 48 hr post-infection measured after 3 days by scanning electron microscopic analysis; format: functional, organism-based
Toxoplasma gondii [24] = assay: Antiparasitic activity Toxoplasma gondii RH infected Swiss albino mouse assessed as disorganised parasite conoid in host peritoneal exudate at 0.25 mg, po administered 48 hr post-infection measured after 3 days by scanning electron microscopic analysis; format: functional, organism-based
Toxoplasma gondii [25] = assay: Antiparasitic activity Toxoplasma gondii RH infected Swiss albino mouse assessed as loss of parasite crescent shape in host peritoneal exudate at 0.25 mg, po administered 48 hr post-infection measured after 3 days by scanning electron microscopic analysis; format: functional, organism-based

Ratio IC50 [1]: 40 | IC50 (Dihydrofolate reductase): 94 nM | IC50 [2]: 65 nM
SMILES: CC(=O)C1=C(C)N=C(SCCC(=O)O)NC1c1cccc(O)c1 (stereo not given)
Activity (Toxoplasma gondii [3]): Active | Activity (Toxoplasma gondii [4]): inactive | Activity (Toxoplasma gondii [5]): inactive | Activity (Toxoplasma gondii [6]): inactive | Activity (Toxoplasma gondii [7]): inactive | Activity (Toxoplasma gondii [8]): Active | Activity (Toxoplasma gondii [9]): Active | Activity (Toxoplasma gondii [10]): Active | Activity (Toxoplasma gondii [11]): Active | Activity (Toxoplasma gondii [12]): Active | Activity (Toxoplasma gondii [13]): Active | Activity (Toxoplasma gondii [14]): Active | Activity (Toxoplasma gondii [15]): Active | Activity (Toxoplasma gondii [16]): Active | Activity (Toxoplasma gondii [17]): Active | Activity (Toxoplasma gondii [18]): Active | Activity (Toxoplasma gondii [19]): Active | Activity (Toxoplasma gondii [20]): Active | Activity (Toxoplasma gondii [21]): Active | Activity (Toxoplasma gondii [22]): Active

Ratio IC50 [1]: 40 | IC50 (Dihydrofolate reductase): 8.9 nM | IC50 [2]: 75 nM
SMILES: CCOC(=O)C1=C(C)N=C(SCCC(=O)O)NC1c1ccccc1OC (stereo not given)
Activity (Toxoplasma gondii [3]): Active | Activity (Toxoplasma gondii [4]): inactive | Activity (Toxoplasma gondii [5]): inactive | Activity (Toxoplasma gondii [6]): inactive | Activity (Toxoplasma gondii [7]): inactive | Activity (Toxoplasma gondii [8]): Active | Activity (Toxoplasma gondii [9]): Active | Activity (Toxoplasma gondii [10]): Active | Activity (Toxoplasma gondii [11]): Active | Activity (Toxoplasma gondii [12]): Active | Activity (Toxoplasma gondii [13]): Active | Activity (Toxoplasma gondii [23]): Active | Activity (Toxoplasma gondii [24]): Active | Activity (Toxoplasma gondii [25]): Active | Activity (Toxoplasma gondii [18]): Active | Activity (Toxoplasma gondii [19]): Active | Activity (Toxoplasma gondii [20]): Active | Activity (Toxoplasma gondii [21]): Active | Activity (Toxoplasma gondii [22]): Active

Source: ChEMBL document CHEMBL3045961, “Synthesis and evaluation of some pyrimidine analogs against toxoplasmosis” (Med Chem Res, 2008)
